Measurements taken from patent publication US5306722A, “Thymidine derivatives and therapeutic method of use” (Bristol-Myers Squibb Company, priority 1992, dated 1994).

Biological target: HSV-1 TK (Human alphaherpesvirus 1 strain KOS, UniProt P17402)
Test: Thymidine kinase inhibitory assay
Format: biochemical
Conditions: 1 μM [^3 H]thymidine, 5 mM ATP, pH 7.5, 37° C., 1 hour; 0-20 μM inhibitor; slope replots of Lineweaver-Burk plots
Experimental: The reaction (50 μl) was performed in: 50 mM Tris-HCl pH 7.5, 5 mM MgCl2, 30 mM KCl, 2 mM dithiothreitol, 5 mM ATP, 1 μM [^3 H]thymidine, 0-20 μM potential inhibitor, 0.075 mg/ml bovine serum albumin, 0.1 unit/ml HSV-1 TK. Incubation was at 37° C. for 1 hour. Samples (40 μl) were spotted on DE-81 filter disks, washed with 1 mM ammonium formate (pH 7), three times with water, twice with ethanol, and dried. Radioactivity was quantitated in a scintillation counter.
TK (thymidine kinase) was affinity purified from HSV-1 (KOS) infected cells by published procedures (Fyfe (1982) Mol. Pharmacol. 21:432-437 and Field et al. (1990) Antiviral Res. 13:41-52). One unit is defined as 1 nanomole thymidine phosphorylated per hour.
In Table 2, inhibition constants were determined from slope replots (1/slope vs [I]) of Lineweaver-Burk plots. "N" indicates the number of experiments, and each experiment was done in triplicate.

Chain of HSV-1 TK (P17402 whole entry, looked up): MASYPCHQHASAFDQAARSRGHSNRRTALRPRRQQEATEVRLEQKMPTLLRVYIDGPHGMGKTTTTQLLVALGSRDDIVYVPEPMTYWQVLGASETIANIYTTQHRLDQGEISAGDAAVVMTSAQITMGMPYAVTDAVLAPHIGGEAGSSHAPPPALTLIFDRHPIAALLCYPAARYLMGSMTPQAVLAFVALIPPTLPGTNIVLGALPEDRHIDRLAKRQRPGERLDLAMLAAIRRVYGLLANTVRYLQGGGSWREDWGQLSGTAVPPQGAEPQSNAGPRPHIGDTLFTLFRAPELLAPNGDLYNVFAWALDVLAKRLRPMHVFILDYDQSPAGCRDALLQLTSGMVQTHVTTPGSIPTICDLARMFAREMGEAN

Row | Ki | Structure (SMILES)
1 | 4.3 ± 1.8 µM | Cc1cn([C@H]2C[C@@H](O)[C@H](OCCc3ccccc3)O2)c(=O)[nH]c1=O [Compound 13]
2 | 26 µM | Cc1cn([C@H]2C[C@H](O)[C@@H](OCCc3ccccc3)O2)c(=O)[nH]c1=O [Compound 12]
3 | 10.1 ± 4.7 µM | Cc1cn([C@H]2C[C@@H](O)[C@H](OCc3ccc(Br)cc3)O2)c(=O)[nH]c1=O [Compound 16]
4 | 3.2 ± 0.3 µM | CO[C@H]1O[C@@H](n2cc(C)c(=O)[nH]c2=O)C[C@@H]1O (single isomer, unassigned) [Compound 2]
